The test system of the experiment is α7 integrin promoter. Description: muscle cell-based assay: α7βgal+/− myoblasts/myotubes, LacZ reporter, β-galactosidase cleavage of FDG. On the set-up: species or system mouse; Results in α7+/− β-galactosidase assay: scale not given here. As to conditions: Myoblasts. The essentials: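 Primary α7βgal+/− mouse myoblasts (LacZ knocked into α7 integrin exon 1, promoter retained), differentiated; promoter activity read as β-galactosidase conversion of non-fluorescent FDG to fluorescein. Hits followed by dose-response, western analysis and myostatin counterscreen.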

Here are results for 23 molecules from patent US10028992B2, “Methods of treating muscular dystrophy” (BOARD OF REGENTS OF THE NEVADA SYSTEM OF HIGHER EDUCATION …, priority 2012, dated 2018).

Molecules are shown by their SMILES.

For the molecule `CCOc1cc(C)c(S(=O)(=O)N2CCCCC2)cc1C` [drawing 679], the “Results in α7+/− β-galactosidase assay” value is on record as 0.1137 (0.5 uM); 0.2418 (1 uM); 0.02032 (5 uM); −0.02723 (10 uM); 0.1874 (20 uM); 0.2404 (40 uM).

On to `Cc1cc(OCC(=O)NC(C)C)ccc1Cl` [drawing 680], for which the “Results in α7+/− β-galactosidase assay” value (0.5 uM) is given as −0.00101; the “Results in α7+/− β-galactosidase assay” value (1 uM) amounted to 0.01964; the “Results in α7+/− β-galactosidase assay” value (5 uM) was −0.2128; the “Results in α7+/− β-galactosidase assay” value (10 uM) was −0.3742; the “Results in α7+/− β-galactosidase assay” value (20 uM) is −0.5775; the “Results in α7+/− β-galactosidase assay” value (40 uM) is reported as −0.6915.

In the case of `Cc1ccsc1CN(C)CC(=O)Cc1ccc([N+](=O)[O-])cc1Cl` [drawing 681], the “Results in α7+/− β-galactosidase assay” value (0.5 uM) turned out to be 0.233; the “Results in α7+/− β-galactosidase assay” value (1 uM) amounted to 0.3513; the “Results in α7+/− β-galactosidase assay” value (5 uM) was −0.03377; the “Results in α7+/− β-galactosidase assay” value (10 uM) was −0.09863; the “Results in α7+/− β-galactosidase assay” value (20 uM) is on record as −0.01304; the “Results in α7+/− β-galactosidase assay” value (40 uM) is on record as −0.0403.

Turning to `O=C1c2ccccc2C(=O)C1(CC(O)O)c1ccccc1` [drawing 682], the “Results in α7+/− β-galactosidase assay” value is, setting by setting: (0.5 uM) 0.2496; (1 uM) 0.3517; (5 uM) −0.03545; (10 uM) −0.1644; (20 uM) −0.1709; (40 uM) −0.2409.

For `Cc1ccc(Cn2nnc3c(O)nc(C4CCCN(C(=O)c5ccco5)C4)nc32)cc1` (stereo not drawn) [drawing 683], the “Results in α7+/− β-galactosidase assay” value (0.5 uM) stood at 0.09519; the “Results in α7+/− β-galactosidase assay” value (1 uM) was 0.1784; the “Results in α7+/− β-galactosidase assay” value (5 uM) is given as −0.02152; the “Results in α7+/− β-galactosidase assay” value (10 uM) was −0.00668; the “Results in α7+/− β-galactosidase assay” value (20 uM) was −0.00332; the “Results in α7+/− β-galactosidase assay” value (40 uM) was 0.06402.

On to `Cc1ccc(NS(=O)(=O)c2ccc(-c3ccc(O)nn3)o2)c(C)c1` [drawing 685], for which the “Results in α7+/− β-galactosidase assay” value is recorded as 0.09197 (0.5 uM); 0.1114 (1 uM); −0.00204 (5 uM); −0.06144 (10 uM); 0.2389 (20 uM); 0.2674 (40 uM).

As for `CCCCN1CC(=O)N2Cc3[nH]c4ccccc4c3C[C@H]2C1=O` [drawing 686], the “Results in α7+/− β-galactosidase assay” value (0.5 uM) is recorded as 0.1518; the “Results in α7+/− β-galactosidase assay” value (1 uM) worked out at 0.2222; the “Results in α7+/− β-galactosidase assay” value (5 uM) is on record as −0.00341; the “Results in α7+/− β-galactosidase assay” value (10 uM) is recorded as −0.04523; the “Results in α7+/− β-galactosidase assay” value (20 uM) is 0.1761; the “Results in α7+/− β-galactosidase assay” value (40 uM) was 0.2299.

Consider `CCC(CC)C(=O)Nc1c(C(=O)N2CCN(c3ccccc3)CC2)oc2ccccc12` [drawing 687], for which the “Results in α7+/− β-galactosidase assay” value is, setting by setting: (0.5 uM) 0.02952; (1 uM) 0.08671; (5 uM) 0.02479; (10 uM) −0.0251; (20 uM) 0.2442; (40 uM) 0.3404.

With `Cc1nc(/C=C2\C(=O)Nc3ccccc32)c[nH]1` [drawing 688], the “Results in α7+/− β-galactosidase assay” value is 0.0102 (0.5 uM); 0.003171 (1 uM); 0.1245 (5 uM); −0.03494 (10 uM); 0.1171 (20 uM); 0.02067 (40 uM).

For the molecule `O=C(NCCc1ccc(Cl)cc1)C1CCCO1` (stereo not drawn) [drawing 689], the “Results in α7+/− β-galactosidase assay” value is reported as 0.03412 (0.5 uM); 0.00045 (1 uM); 0.2918 (5 uM); 0.03423 (10 uM); 0.08798 (20 uM); 0.003802 (40 uM).

As for `CCNC(=O)C(=O)Nc1cc2c3c(c1)CCN3C(=O)CC2` [drawing 690], the “Results in α7+/− β-galactosidase assay” value (0.5 uM) turned out to be 0.05836; the “Results in α7+/− β-galactosidase assay” value (1 uM) amounted to 0.1657; the “Results in α7+/− β-galactosidase assay” value (5 uM) worked out at 0.2771; the “Results in α7+/− β-galactosidase assay” value (10 uM) came to 0.06388; the “Results in α7+/− β-galactosidase assay” value (20 uM) was found to be 0.05069; the “Results in α7+/− β-galactosidase assay” value (40 uM) is 0.005609.

Take `Cc1cccc(NCC(=O)N/N=C/c2ccccn2)c1` [drawing 691]: the “Results in α7+/− β-galactosidase assay” value runs as follows: (0.5 uM) 0.1681; (1 uM) 0.3046; (5 uM) 0.3928; (10 uM) 0.1778; (20 uM) −0.1319; (40 uM) −0.4037.

On to `COc1ccc(CN2CCNC(=O)C2CC(=O)NCCc2c[nH]c3ccccc23)c(OC)c1` (stereo not drawn) [drawing 692], for which the “Results in α7+/− β-galactosidase assay” value runs as follows: (0.5 uM) 0.0135; (1 uM) 0.04793; (5 uM) 0.2102; (10 uM) −0.04499; (20 uM) −0.02608; (40 uM) −0.01274.

`O=c1c2cc(-c3ccccc3)sc2nc2n1N=C(c1ccccc1)CS2` [drawing 693]: the “Results in α7+/− β-galactosidase assay” value reads like this: (0.5 uM) −0.04703; (1 uM) −0.001; (5 uM) 0.1857; (10 uM) 0.01009; (20 uM) 0.0113; (40 uM) 0.00476.

Regarding `Nc1ncnc(NCc2ccccc2)c1[N+](=O)[O-]` [drawing 694], the “Results in α7+/− β-galactosidase assay” value reads like this: (0.5 uM) 0.01911; (1 uM) 0.00831; (5 uM) 0.2463; (10 uM) −0.04019; (20 uM) −0.00635; (40 uM) 0.02312.

Turning to `O=CN1CCN(C(=O)CC(c2ccccc2)c2cc(Br)ccc2O)CC1` (stereo not drawn) [drawing 695], the “Results in α7+/− β-galactosidase assay” value is recorded as 0.1751 (0.5 uM); 0.03283 (1 uM); 0.07723 (5 uM); −0.1323 (10 uM); 0.00725 (20 uM); −0.04551 (40 uM).

Turning to `Cc1ccc2c(c1)/C(=C/c1ccco1)C(=O)N2` [drawing 696], the “Results in α7+/− β-galactosidase assay” value is reported as 0.2035 (0.5 uM); 0.02005 (1 uM); 0.2293 (5 uM); 0.07554 (10 uM); 0.1241 (20 uM); 0.1026 (40 uM).

Consider `O=C1CCC(C(=O)N2CCSCC2)CN1Cc1ccc(Cl)cc1` (stereo not drawn) [drawing 697], for which the “Results in α7+/− β-galactosidase assay” value by setting is: (0.5 uM) 0.1419; (1 uM) −0.02657; (5 uM) 0.2626; (10 uM) 0.4599; (20 uM) 0.2652; (40 uM) 0.222.

For the molecule `c1ccc(-c2cn3c4c(sc3n2)CCCC4)cc1` [drawing 698], the “Results in α7+/− β-galactosidase assay” value is 0.1572 (0.5 uM); 0.06589 (1 uM); 0.03743 (5 uM); 0.2239 (10 uM); −0.06232 (20 uM); −0.1797 (40 uM).

With `COc1ccccc1CC(=O)Nc1cc(S(=O)(=O)N2CCOCC2)ccc1N1CCOCC1` [drawing 699], the “Results in α7+/− β-galactosidase assay” value reads like this: (0.5 uM) 0.122; (1 uM) −0.02918; (5 uM) 0.0982; (10 uM) 0.2162; (20 uM) −0.2175; (40 uM) −0.3265.

Take `COc1ccccc1/C=C1\C(=O)Nc2ccccc21` [drawing 700]: the “Results in α7+/− β-galactosidase assay” value runs as follows: (0.5 uM) 0.2078; (1 uM) 0.1004; (5 uM) 0.141; (10 uM) 0.312; (20 uM) −0.00605; (40 uM) −0.06928.

As for `CN1C(=O)N(CC(=O)N2CCN(S(=O)(=O)c3ccc(Cl)s3)CC2)C(=O)C12CCCCC2` [drawing 701], the “Results in α7+/− β-galactosidase assay” value (0.5 uM) is 0.1065; the “Results in α7+/− β-galactosidase assay” value (1 uM) was 0.03367; the “Results in α7+/− β-galactosidase assay” value (5 uM) came out at 0.1338; the “Results in α7+/− β-galactosidase assay” value (10 uM) was 0.2611; the “Results in α7+/− β-galactosidase assay” value (20 uM) is reported as −0.306; the “Results in α7+/− β-galactosidase assay” value (40 uM) is recorded as −0.5075.

`Cn1cc(CN2CCC(C(=O)Nc3cccc(-c4cscn4)c3)CC2)cn1` [drawing 702]: the “Results in α7+/− β-galactosidase assay” value reads like this: (0.5 uM) 0.1618; (1 uM) 0.05749; (5 uM) 0.02884; (10 uM) 0.2457; (20 uM) −0.3975; (40 uM) −0.5369.
